± gives the expanded uncertainty stated by the source.
Legend:
[1] = wn = mass fraction of the nth substance listed; settings: 101 kPa, Crystal, Hot wire method
[2] = 101.3 kPa, Crystal, Hot wire method

CC(C)(CO)CO [2,2-dimethyl-1,3-propanediol] + CC1(C)[C@@H]2CC[C@@]1(C)C(=O)C2
[1]
Settings	thermal conductivity [W/m/K]
298 K, w2 = 0.7	0.35 ± 0.01
303 K, w2 = 0.03	0.38 ± 0.01
303 K, w2 = 0.3	0.37 ± 0.01
303 K, w2 = 0.7	0.34 ± 0.01
303 K, w2 = 0.96	0.3 ± 0.01
308 K, w2 = 0.3	0.36 ± 0.01
308 K, w2 = 0.7	0.34 ± 0.01
313 K, w2 = 0.03	0.37 ± 0.01
313 K, w2 = 0.3	0.35 ± 0.01
313 K, w2 = 0.7	0.33 ± 0.01
313 K, w2 = 0.96	0.3 ± 0.01
315 K, w2 = 0.7	0.33 ± 0.01
317 K, w2 = 0.7	0.33 ± 0.01
318 K, w2 = 0.3	0.34 ± 0.01
319 K, w2 = 0.7	0.32 ± 0.01
321 K, w2 = 0.7	0.32 ± 0.01
323 K, w2 = 0	0.4 ± 0.01
323 K, w2 = 0.03	0.36 ± 0.01
323 K, w2 = 0.3	0.33 ± 0.01
323 K, w2 = 0.7	0.32 ± 0.01
323 K, w2 = 0.96	0.3 ± 0.01
325 K, w2 = 0.7	0.31 ± 0.01
328 K, w2 = 0.3	0.32 ± 0.01
328 K, w2 = 0.7	0.31 ± 0.01
333 K, w2 = 0	0.38 ± 0.01
333 K, w2 = 0.03	0.35 ± 0.01
333 K, w2 = 0.3	0.31 ± 0.01
333 K, w2 = 0.7	0.31 ± 0.01
333 K, w2 = 0.96	0.29 ± 0.01
338 K, w2 = 0.7	0.31 ± 0.01
343 K, w2 = 0	0.36 ± 0.01
343 K, w2 = 0.03	0.34 ± 0.01
343 K, w2 = 0.7	0.31 ± 0.01
343 K, w2 = 0.96	0.29 ± 0.01
348 K, w2 = 0.7	0.3 ± 0.01
353 K, w2 = 0	0.33 ± 0.01
353 K, w2 = 0.03	0.32 ± 0.01
353 K, w2 = 0.7	0.3 ± 0.01
353 K, w2 = 0.96	0.29 ± 0.01
358 K, w2 = 0.7	0.29 ± 0.01
363 K, w2 = 0	0.32 ± 0.01
363 K, w2 = 0.7	0.28 ± 0.01
363 K, w2 = 0.96	0.28 ± 0.01
373 K, w2 = 0	0.29 ± 0.01
373 K, w2 = 0.96	0.28 ± 0.01
383 K, w2 = 0	0.3 ± 0.01
383 K, w2 = 0.96	0.28 ± 0.01
393 K, w2 = 0	0.31 ± 0.01
393 K, w2 = 0.96	0.27 ± 0.01
403 K, w2 = 0.96	0.27 ± 0.01
413 K, w2 = 0.96	0.26 ± 0.01
423 K, w2 = 0.96	0.26 ± 0.01
433 K, w2 = 0.96	0.25 ± 0.01

CC(C)(CO)CO [2,2-dimethyl-1,3-propanediol]
[2]
Settings	thermal conductivity [W/m/K]
323 K	0.4 ± 0.01
333 K	0.38 ± 0.01
343 K	0.36 ± 0.01
353 K	0.33 ± 0.01
363 K	0.32 ± 0.01
373 K	0.29 ± 0.01
383 K	0.3 ± 0.01
393 K	0.31 ± 0.01

— the NIST ThermoML archive (doi:10.1016/j.tca.2011.12.021)
